Laboratory results reported in article PMC6213006, “Directed Evolution of a Homodimeric Laccase from Cerrena unicolor BBP6 by Random Mutagenesis and In Vivo Assembly” (International Journal of Molecular Sciences, 2018).

Tests used:
Assay in all cases: ABTS oxidation at […] nm, Lineweaver-Burk, crude culture supernatant
Assay type in all cases: biochemical, Cerrena unicolor
[1] = tested on: LacA (parent-type αLacA, recombinant); settings: 100 mM acetate pH 4.0, 30 °C, 10–1000 µM ABTS, air O2; IVA264
[2] = tested on: LacA (parent-type αLacA, recombinant); settings: 100 mM acetate pH 4.0, 30 °C, 10–1000 µM ABTS, air O2; RM1524
[3] = tested on: LacA (parent-type αLacA, recombinant); settings: 100 mM acetate pH 4.0, 30 °C, 10–1000 µM ABTS, air O2; IVA189
[4] = tested on: LacA (parent-type αLacA, recombinant); settings: 100 mM acetate pH 4.0, 30 °C, 10–1000 µM ABTS, air O2; RM1307, expressed with leader mutations αN23I/αA75T
[5] = tested on: LacA (parent-type αLacA, recombinant); settings: 100 mM acetate pH 4.0, 30 °C, 10–1000 µM ABTS, air O2; RM811
[6] = tested on: LacA (parent-type αLacA, recombinant); settings: 100 mM acetate pH 4.0, 30 °C, 10–1000 µM ABTS, air O2; RM243
[7] = tested on: LacA (parent-type αLacA, recombinant); settings: 100 mM acetate pH 4.0, 30 °C, 10–1000 µM ABTS, air O2; RM1925
[8] = tested on: LacA (parent-type αLacA, recombinant); settings: 100 mM acetate pH 4.0, 30 °C, 10–1000 µM ABTS, air O2; IVA205
[9] = tested on: LacA (parent-type αLacA, recombinant); settings: 100 mM acetate pH 4.0, 30 °C, 10–1000 µM ABTS, air O2; RM464
[10] = tested on: LacA (parent-type αLacA, recombinant); settings: 100 mM acetate pH 4.0, 30 °C, 10–1000 µM ABTS, air O2
[11] = tested on: LacA (parent-type αLacA, recombinant); settings: 100 mM acetate pH 4.0, 30 °C, 10–1000 µM ABTS, air O2; RM1905

`CCn1c(=NN=c2sc3cc(S(=O)(=O)O)ccc3n2CC)sc2cc(S(=O)(=O)O)ccc21` [2,2′-azino-bis(3-ethylbenzothiazoline-6-sulfonic acid)] showed a Km [1] of 64 ± 2.5 µM, a Km [2] of 59.8 ± 2.2 µM and a Km [3] of 69.8 ± 3.6 µM. The Km [4] was 67.5 ± 1.7 µM, the Km [5] was 168 µM and the Km [6] was 64.8 ± 1.4 µM. The Km [7] was 79.8 ± 12.7 µM, the Km [8] was 85.3 ± 0.3 µM and the Km [9] was 90.2 ± 3.4 µM. For the same compound, the Km [10] was 206 ± 11.6 µM and the Km [11] was 147 ± 14.6 µM.
